The subject of assay [1] is Honeybees (Apis mellifera scutellata). In words: Classical conditioning of the proboscis extension response (PER): learning, 24 h memory retention, latency; flavonoids vs imidacloprid. The assay is classed as in vivo. The conditions noted are these: for memory retention, proportion difference relative to Control bees (Adjusted Wald test): conditioned PER after 24 h; for latency of response during learning acquisition relative to Control bees / learning scores relative to Control bees: honey bees; for learning scores relative to Control bees: 8 trials, score 0-7, quercetin 6.6 mM or rutin 1 mM once a day for three days, imidacloprid 1.16 nM 20 μL 1.5 h before training. As to the method: Honeybees (Apis mellifera scutellata) were captured from established hives at the Apiary of the Pontificia Universidad Javeriana (Bogota, Colombia). Foragers were collected while leaving to forage between 8:00 am and 10:00 am (Matsumoto et al., J Neurosci Methods. 211(1):159-67. 2012). Bees were maintained in individual plastic chambers under laboratory conditions (photoperiod followed seasonal pattern; relative humidity: 63%; temperature: 18° C.). Food was provided once a day in a volume of 20 μL and varied in composition according to experimental treatments.
Control (2M sugar water): fed once a day (20 μL) for three consecutive days;
Quercetin (6.6 mM quercetin (Sigma-Aldrich: Q4951)-sucrose-water with DMSO 1% (Sigma-Aldrich: D8418): fed once a day for three days;
Rutin (1 mM rutin (Sigma-Aldrich R5143)-sucrose-water with DMSO 1%: fed once a day for three days;
Imidacloprid (1.16 nM Imidacloprid (Bayer)-sucrose-water: fed as a single dose (20 μL) 1.5 h before training;
Quercetin-Imidacloprid: bees received the quercetin treatment (see above) and were fed Imidacloprid 1.5 h before training; and
Rutin-Imidacloprid: bees received the rutin treatment (see above) and were fed Imidacloprid 1.5 h before training.
Bees were trained using classical conditioning of the proboscis extension response (PER), a broadly used method to study learning and memory in bees. Briefly, bees received a soft current of clean air for 15 seconds to allow bees to accommodate. Then a soft current of 1-hexanol (Sigma-Aldrich: 471402) was injected for 10 seconds. Six seconds after injection of 1-hexanol, one of the antennae was stimulated with sucrose water (50% w/w), which leads to the reflexive extension of the proboscis, and the bee was allowed to drink for 4 seconds. Thus, the reward and the stimulus overlapped for four seconds. This sequence, recognized as a training trial, was repeated eight times. Time was determined using a metronome (2 Hz). Memory retention was tested 24 hours after the eight training trials. […] 12 bees were trained each session. Training was conducted by an experimenter blind to treatment.
Learning was assessed from the total number of conditioned responses across the eight trials. Thus, each bee received a learning score between 0-7 (by definition, bees cannot show a learned response at the first trial). After 24 h, memory retention was assessed as the response to the presentation of 1-hexanol without a sucrose reward. Latency of response was quantified as the time between the onset of 1-hexanol stimulation and the onset of a response that led to a full extension of proboscis. Only bees being responsive to sucrose water across all training trials and the memory retention test were considered for analyses. Learning scores were compared across treatments using a Mann-Whitney test as data were not normally distributed (Shapiro-Wilk W test for the hypothesis that the data is from a Normal distribution: P<0.05 for all treatments). Comparisons of the learning score of bees across all treatments relative to Control bees were conducted using the Steel method adjusted as one or two-tailed tests. Additional post hoc comparisons were performed between Imid and Quer+Imid bees and between Imid and Rut+Imid bees. Memory retention was compared across groups using an overall Chi-Square test and independent tests for planned comparisons were performed using adjusted Wald tests for proportions. In all cases error due to multiple comparisons was controlled using the False Discovery Rate one stage method and adjusted p-values (q-values) are presented (Benjamini & Hochberg, Journal of the Royal Statistical Society. Series B (Methodological), 57(1):289-300. 1995; Pike, N., Methods in Ecology and Evolution, 2(3):278-282. 2011). All analyses were conducted using JMP v.14.0 (SAS Institute Inc). […]

Assay [2] concerns bumblebee Bombus impatiens. In words: Olfactory conditioning of PER in bumblebees: ad libitum rutin vs acute imidacloprid or fipronil. In kind it is in vivo. The conditions noted are these: for learning score relative to Control bees: score 0-10, ad libitum 1 μM rutin three days, 5 nM imidacloprid or 6 nM fipronil 20 μL 2 hours before training. Here is the method: One colony of the bumblebee Bombus impatiens (Koppert Inc) was kept in laboratory conditions. Bees received pollen inside the nests and foraged to a 1M sugar-water feeder outside of the nest. Bees were collected while on the feeder and iced anesthetized to then be randomly assigned to one of two plastic containers where ad libitum self-administration of one of two solutions was allowed to 10 bees: i) 1 M sucrose water or ii) 1 μM Rutin (Sigma-Aldrich R5143) diluted in 1M sucrose water. On the night of the third day, the feeder was removed to starve the bees. On the fourth day, the bees were iced anesthetized and yolked restrained in plastic pipettes. Bees were maintained in the pipettes for the rest of the experiment (two days). One hour after harnessing, the bees were randomly assigned to one of three treatments: i) 20 μL of 1M sucrose water, ii) 20 μL of 1M sucrose water+5 nM imidacloprid, iii) 20 μL of 1M sucrose water+6 nM fipronil. Thus, overall bees belonged to one of six treatments:
Control: ad libitum sucrose water for three days and 20 μL of sucrose water before training
Rutin: ad libitum 1 μM Rutin for three days and 20 μL of sucrose water before training
Imid: ad libitum sucrose water for three days and 20 μL of 5 nM Imidacloprid in 1M sugar water 2 hours before training
Rutin+Imid: ad libitum 1 μM Rutin for three days and 20 μL of 5 nM Imidacloprid in 1M sugar water 2 hours before training
Fipronil: ad libitum sucrose water for three days and 20 μL of 5 nM fipronil in 1M sucrose water 2 hours before training
Rutin+Fipronil: ad libitum […] Rutin for three days and 20 μL of 6 nM fipronil in 1M sugar water 2 hours before training
All bees were blind-trained using olfactory conditioning of the proboscis extension response (PER). Briefly, bees were exposed to a presentation of 1-nonanol (Sigma-Aldrich) for 10 s. After 7 s of the onset of the odor presentation, the antenna was stimulated with 1.5 M sugar-water to elicit the PER. Following the PER, the bee was allowed to drink sugar-water for 3 s. Each paired presentation was considered a training trial and each individual received eleven training trials with an average intertrial interval of 10 minutes. After training, all bees were fed 20 μL of 1M sugar water and maintained in plastic boxes for 24 h until the retention test. […] Twenty-four hours after the last training trial the bees were presented with the conditioned odor for 10 s.
Learning for each individual was quantified as the number of conditioned PER responses across the trials. Thus, for each bee a learning score between zero and ten (0-10) was recorded.
Multiple comparisons were then run comparing learning score relative to Control bees using a non-parametric one or two-tailed Steel Method depending upon predictions. These comparisons informed us about the predicted impairment produced by the insecticides, the predicted innocuous effect of the flavonoid and the potential level of protection. Error due to multiple comparisons was controlled using the False Discovery Rate method (FDR-two stage sharpened method). In all cases corrected p-values (q-values) are presented.
Memory retention was quantified as a nominal variable (yes/no). Data were compared across treatments using a Chi-square test, followed by multiple comparisons of all treatments vs. Control. Error due to multiple comparisons was controlled using the FDR as indicated above. In all cases corrected p-values (q values) are presented.
Latency was quantified as a continuous variable between 0.5 s and 10 s. Data were compared across treatments using an ANOVA following a Log transformation to normalize the distribution (Shapiro-Wilk W Test after log transformation: p>0.05 for all treatments for the null hypothesis that data is from a normal distribution), followed by multiple comparisons between all treatments and the Control group. Error due to multiple comparisons was controlled using the FDR method as indicated above. […]

Turning to `O=[N+]([O-])NC1=NCCN1Cc1ccc(Cl)nc1` [Imidacloprid], in assay [1] (24 h retention), the “odds of remembering for Control bees relative to Imid bees” value is on record as 9.1 times and the “probability of exhibiting a conditioned PER after 24 h relative to Control bees” value is recorded as “significantly lower”. Besides, in assay [1], the “memory retention, proportion difference relative to Control bees (Adjusted Wald test)” value is 0.49; the “latency of response during learning acquisition relative to Control bees” value was “not significantly different from Control”; the “learning scores relative to Control bees” value is “significantly lower”. Also, in assay [1] (retention test 24 h after training), the “bees exhibiting a conditioned PER after 24 h” value is on record as 20%. In assay [2] (24 h retention), the “odds of remembering for Control bees relative to insecticide bees” value was 12 times and the “proportion difference Control minus insecticide group for a PER response (Adjusted Wald test)” value was 0.51. In assay [2] (bumblebees), the “decision-making ratio (latency of response / learning score) relative to Control bees” value was “significant increase” and the “learning score relative to Control bees” value is given as “significantly lower”. Further, the “bees exhibiting a conditioned response after 24 h” value in assay [2] (bumblebees, 24 h retention test) is recorded as 13%.
Regarding `C[C@@H]1O[C@@H](OC[C@H]2O[C@@H](Oc3c(-c4ccc(O)c(O)c4)oc4cc(O)cc(O)c4c3=O)[C@H](O)[C@@H](O)[C@@H]2O)[C@H](O)[C@H](O)[C@H]1O` [Rutin], in assay [1], the “memory retention, proportion difference relative to Control bees (Adjusted Wald test)” value is −0.14; the “latency of response during learning acquisition relative to Control bees” value was “not significantly different from Control”; the “learning scores relative to Control bees” value is “significantly higher learning scores”. Also, in assay [1] (honey bees prophylactically fed flavonoid for three days, then imidacloprid 1.5 h before training), the “learning scores relative to bees in the Imid group” value is “significantly higher learning scores”. Further, the “learning score relative to Control bees” value in assay [2] (bumblebees) is on record as “not significantly different”.

For the origin of these results see patent US20220339178A1, “COMPOSITIONS AND METHODS FOR COGNITIVE PROTECTION OF POLLINATORS AGAINST PESTICIDES” (priority 2019, published 2022).
